Laboratory results published in ChEMBL document CHEMBL1201862, “PubChem BioAssay data set” (2004).
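Method: 48-hour compound exposure of cells in 96-well plates, five concentrations, linear interpolation of endpoints. At the GI50, growth is halved.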 Active and inactive are the calls of the source. Rule as the data show it: active = GI50 up to about 1.1 µM and inactive = higher.

Experiments:
Assay in all cases: NCI tumour cell line growth inhibition, 48 h
[1] = test system: Malme-3M
[2] = test system: OVCAR-4
[3] = test system: RXF 393
[4] = test system: SK-MEL-28
[5] = test system: MDA-MB-435
[6] = test system: SK-MEL-5
[7] = test system: IGROV-1
[8] = test system: OVCAR-8
[9] = test system: DU-145
[10] = test system: HCC 2998
[11] = test system: COLO 205
[12] = test system: HCT-116
[13] = test system: SK-OV-3
[14] = test system: NCI/ADR-RES
[15] = test system: SF-268
[16] = test system: M14
[17] = test system: HT-29
[18] = test system: T47D
[19] = test system: OVCAR-3
[20] = test system: SF-295
[21] = test system: A549
[22] = test system: MDA-N
[23] = test system: SNB-75
[24] = test system: MCF7
[25] = test system: EKVX
[26] = test system: U-251
[27] = test system: MDA-MB-231
[28] = test system: SF-539
[29] = test system: MOLT-4
[30] = test system: SW-620
[31] = test system: K562
[32] = test system: SN12C
[33] = test system: CCRF-CEM
[34] = test system: HL-60
[35] = test system: OVCAR-5
[36] = test system: Hs-578T
[37] = test system: SR
[38] = test system: HOP-62
[39] = test system: A498
[40] = test system: SK-MEL-2
[41] = test system: LOX IMVI
[42] = test system: NCI-H226
[43] = test system: CAKI-1
[44] = test system: HOP-92
[45] = test system: PC-3
[46] = test system: HCT-15
[47] = test system: ACHN
[48] = test system: SNB-19
[49] = test system: UO-31
[50] = test system: KM12
[51] = test system: NCI-H522
[52] = test system: RPMI-8226
[53] = test system: UACC-62
[54] = test system: NCI-H460
[55] = test system: TK-10

**Q.** For CCSc1ncnc2c(C3OC(CO)C(O)C3O)nsc12 (centres undefined), which GI50 [1] is on record?
**A.** > 100 µM (inactive)

**Q.** What about the GI50 [2] of the same compound?
**A.** > 100 µM (inactive)

**Q.** What about the GI50 [3] of the same compound?
**A.** > 100 µM (inactive)

**Q.** What about the GI50 [4] of the same compound?
**A.** > 100 µM (inactive)

**Q.** And the GI50 [5]?
**A.** > 100 µM (inactive)

**Q.** And the GI50 [6]?
**A.** > 100 µM (inactive)

**Q.** And the GI50 [7]?
**A.** > 100 µM (inactive)

**Q.** What about the GI50 [8] of the same compound?
**A.** > 100 µM (inactive)

**Q.** What about the GI50 [9] of the same compound?
**A.** > 100 µM (inactive)

**Q.** And the GI50 [10]?
**A.** 99.1 µM (inactive)

**Q.** And the GI50 [11]?
**A.** > 100 µM (inactive)

**Q.** What about the GI50 [12] of the same compound?
**A.** > 100 µM (inactive)

**Q.** What about the GI50 [13] of the same compound?
**A.** > 100 µM (inactive)

**Q.** And the GI50 [14]?
**A.** > 100 µM (inactive)

**Q.** What about the GI50 [15] of the same compound?
**A.** > 100 µM (inactive)

**Q.** And the GI50 [16]?
**A.** > 100 µM (inactive)

**Q.** What about the GI50 [17] of the same compound?
**A.** > 100 µM (inactive)

**Q.** And the GI50 [18]?
**A.** > 100 µM (inactive)

**Q.** And the GI50 [19]?
**A.** > 100 µM (inactive)

**Q.** What about the GI50 [20] of the same compound?
**A.** > 100 µM (inactive)

**Q.** What about the GI50 [21] of the same compound?
**A.** > 100 µM (inactive)

**Q.** What about the GI50 [22] of the same compound?
**A.** > 100 µM (inactive)

**Q.** What about the GI50 [23] of the same compound?
**A.** > 100 µM (inactive)

**Q.** And the GI50 [24]?
**A.** > 100 µM (inactive)

**Q.** And the GI50 [25]?
**A.** > 100 µM (inactive)

**Q.** And the GI50 [26]?
**A.** > 100 µM (inactive)

**Q.** And the GI50 [27]?
**A.** > 100 µM (inactive)

**Q.** And the GI50 [28]?
**A.** > 100 µM (inactive)

**Q.** What about the GI50 [29] of the same compound?
**A.** > 100 µM (inactive)

**Q.** And the GI50 [30]?
**A.** > 100 µM (inactive)

**Q.** What about the GI50 [31] of the same compound?
**A.** > 100 µM (inactive)

**Q.** What about the GI50 [32] of the same compound?
**A.** > 100 µM (inactive)

**Q.** What about the GI50 [33] of the same compound?
**A.** > 100 µM (inactive)

**Q.** And the GI50 [34]?
**A.** > 100 µM (inactive)

**Q.** What about the GI50 [35] of the same compound?
**A.** > 100 µM (inactive)

**Q.** And the GI50 [36]?
**A.** > 100 µM (inactive)

**Q.** And the GI50 [37]?
**A.** > 100 µM (inactive)

**Q.** And the GI50 [38]?
**A.** > 100 µM (inactive)

**Q.** What about the GI50 [39] of the same compound?
**A.** > 100 µM (inactive)

**Q.** What about the GI50 [40] of the same compound?
**A.** > 100 µM (inactive)

**Q.** What about the GI50 [41] of the same compound?
**A.** > 100 µM (inactive)

**Q.** What about the GI50 [42] of the same compound?
**A.** > 100 µM (inactive)

**Q.** And the GI50 [43]?
**A.** > 100 µM (inactive)

**Q.** And the GI50 [44]?
**A.** > 100 µM (inactive)

**Q.** And the GI50 [45]?
**A.** > 100 µM (inactive)

**Q.** And the GI50 [46]?
**A.** > 100 µM

**Q.** Which GI50 [47] does the source give for COc1ccc(NC2=NCCO2)c2ccccc12 here?
**A.** > 10 µM (inactive)

**Q.** And the GI50 [1]?
**A.** > 10 µM (inactive)

**Q.** What about the GI50 [2] of the same compound?
**A.** > 10 µM (inactive)

**Q.** And the GI50 [3]?
**A.** > 10 µM (inactive)

**Q.** And the GI50 [4]?
**A.** > 10 µM (inactive)

**Q.** And the GI50 [5]?
**A.** > 10 µM (inactive)

**Q.** And the GI50 [6]?
**A.** > 10 µM (inactive)

**Q.** What about the GI50 [7] of the same compound?
**A.** > 10 µM (inactive)

**Q.** And the GI50 [8]?
**A.** > 10 µM (inactive)

**Q.** And the GI50 [9]?
**A.** > 10 µM (inactive)

**Q.** What about the GI50 [10] of the same compound?
**A.** > 10 µM (inactive)

**Q.** What about the GI50 [11] of the same compound?
**A.** > 10 µM (inactive)

**Q.** And the GI50 [12]?
**A.** > 10 µM (inactive)

**Q.** What about the GI50 [13] of the same compound?
**A.** > 10 µM (inactive)

**Q.** And the GI50 [14]?
**A.** > 10 µM (inactive)

**Q.** What about the GI50 [15] of the same compound?
**A.** > 10 µM (inactive)

**Q.** What about the GI50 [16] of the same compound?
**A.** > 10 µM (inactive)

**Q.** And the GI50 [17]?
**A.** > 10 µM (inactive)

**Q.** What about the GI50 [18] of the same compound?
**A.** > 10 µM (inactive)

**Q.** And the GI50 [19]?
**A.** > 10 µM (inactive)

**Q.** What about the GI50 [48] of the same compound?
**A.** > 10 µM (inactive)

**Q.** What about the GI50 [20] of the same compound?
**A.** > 10 µM (inactive)

**Q.** And the GI50 [21]?
**A.** > 10 µM (inactive)

**Q.** What about the GI50 [22] of the same compound?
**A.** > 10 µM (inactive)

**Q.** What about the GI50 [23] of the same compound?
**A.** > 10 µM (inactive)

**Q.** What about the GI50 [24] of the same compound?
**A.** > 10 µM (inactive)

**Q.** And the GI50 [49]?
**A.** > 10 µM (inactive)

**Q.** And the GI50 [25]?
**A.** > 10 µM (inactive)

**Q.** What about the GI50 [50] of the same compound?
**A.** > 10 µM (inactive)

**Q.** And the GI50 [27]?
**A.** > 10 µM (inactive)

**Q.** And the GI50 [28]?
**A.** > 10 µM (inactive)

**Q.** What about the GI50 [29] of the same compound?
**A.** > 10 µM (inactive)

**Q.** What about the GI50 [30] of the same compound?
**A.** > 10 µM (inactive)

**Q.** What about the GI50 [31] of the same compound?
**A.** > 10 µM (inactive)

**Q.** And the GI50 [32]?
**A.** > 10 µM (inactive)

**Q.** What about the GI50 [33] of the same compound?
**A.** > 10 µM (inactive)

**Q.** What about the GI50 [34] of the same compound?
**A.** > 10 µM (inactive)

**Q.** And the GI50 [35]?
**A.** > 10 µM (inactive)

**Q.** What about the GI50 [36] of the same compound?
**A.** > 10 µM (inactive)

**Q.** What about the GI50 [51] of the same compound?
**A.** > 10 µM (inactive)

**Q.** What about the GI50 [37] of the same compound?
**A.** > 10 µM (inactive)

**Q.** And the GI50 [38]?
**A.** > 10 µM (inactive)

**Q.** What about the GI50 [39] of the same compound?
**A.** > 10 µM (inactive)

**Q.** And the GI50 [40]?
**A.** > 10 µM (inactive)

**Q.** And the GI50 [41]?
**A.** > 10 µM (inactive)

**Q.** What about the GI50 [42] of the same compound?
**A.** 3.03 µM (inactive)

**Q.** And the GI50 [52]?
**A.** > 10 µM (inactive)

**Q.** And the GI50 [43]?
**A.** > 10 µM (inactive)

**Q.** What about the GI50 [53] of the same compound?
**A.** > 10 µM (inactive)

**Q.** What about the GI50 [54] of the same compound?
**A.** > 10 µM (inactive)

**Q.** What about the GI50 [45] of the same compound?
**A.** > 10 µM (inactive)

**Q.** What about the GI50 [46] of the same compound?
**A.** > 10 µM

**Q.** And the GI50 [55]?
**A.** > 10 µM (inactive)
